From PubChem BioAssay AID226 (DTP/NCI, 2004) come the findings set out here.

Values joined by “and” are separate entries in the source; they are usually repeats but may differ in a detail not shown here. Equal values may be shown once. Inconclusive results and toxic doses are left out.

The assay concerns B6C3F1 mice, intracerebral ependymoblastoma, median survival T/C. Kind of assay: NCI In Vivo Anticancer Drug Screen. Data for tumor model Ependymoblastoma (intracerebral) in B6C3F1 mice. Particulars: endpoint: median survival time, higher = longer survival. Here is the method: The antitumor activity of compounds was measured in mice bearing transplantable tumors. Survival or tumor size were measured and the results are expressed as the measurement made in the treated group (T) divided by the measurement made in the vehicle treated control group (C). The tumor model used in this assay is Ependymoblastoma (intracerebral) in B6C3F1 mice

[1] abbreviates: dose: 6.25 mg/kg/injection, schedule: Q01DX005 (ip), vehicle: saline with Tween-80.

For the compound `CO[C@H]1C[C@@H]2CC[C@@H](C)[C@@](O)(O2)C(=O)C(=O)N2CCCC[C@H]2C(=O)O[C@H]([C@H](C)C[C@@H]2CC[C@@H](O)[C@H](OC)C2)CC(=O)[C@H](C)C=C(C)[C@@H](O)[C@@H](OC)C(=O)[C@H](C)C[C@H](C)/C=C/C=C/C=C1C`, the T/C (dose: 3.12 mg/kg/injection, schedule: Q01DX009 (ip), vehicle: clinical formulation) is 118 % of control; the T/C under setting [1] was 113 % of control; the T/C (dose: 12.5 mg/kg/injection, schedule: Q01DX009 (ip), vehicle: gum acacia) is 202 % of control; the T/C (dose: 25.0 mg/kg/injection, schedule: Q01DX005 (oral), vehicle: saline with Tween-80) was 106 % of control; the T/C (dose: 25.0 mg/kg/injection, schedule: Q01DX009 (ip), vehicle: clinical formulation) was 156 % of control; the T/C (dose: 25.0 mg/kg/injection, schedule: Q01DX009 (ip), vehicle: gum acacia) was 198 % of control. Besides, the T/C reads like this: (dose: 50.0 mg/kg/injection, schedule: Q01DX005 (oral), vehicle: saline with Tween-80) 107 % of control and 108 % of control; (dose: 50.0 mg/kg/injection, schedule: Q01DX009 (ip), vehicle: clinical formulation) 152 % of control and 156 % of control; (dose: 50.0 mg/kg/injection, schedule: Q01DX009 (ip), vehicle: gum acacia) 177 % of control; (dose: 100.0 mg/kg/injection, schedule: Q01DX005 (oral), vehicle: saline with Tween-80) 100 % of control and 107 % of control; (dose: 100.0 mg/kg/injection, schedule: Q01DX009 (ip), vehicle: clinical formulation) 162 % of control and 167 % of control; (dose: 100.0 mg/kg/injection, schedule: Q01DX009 (ip), vehicle: gum acacia) 185 % of control. Also, the T/C is 113 % of control and 193 % of control and 207 % of control (dose: 200.0 mg/kg/injection, schedule: Q01DX005 (ip), vehicle: saline with Tween-80); 103 % of control and 108 % of control (dose: 200.0 mg/kg/injection, schedule: Q01DX005 (oral), vehicle: saline with Tween-80); 108 % of control and 119 % of control (dose: 400.0 mg/kg/injection, schedule: Q01DX005 (oral), vehicle: saline with Tween-80); 198 % of control (dose: 400.0 mg/kg/injection, schedule: Q01DX009 (ip), vehicle: gum acacia); 124 % of control (dose: 800.0 mg/kg/injection, schedule: Q01DX005 (oral), vehicle: saline with Tween-80).
As to `COc1c(C)c2c(c(O)c1C/C=C(\C)CCC(=O)O)C(=O)OC2`, the T/C was 101 % of control (dose: 12.5 mg/kg/injection, schedule: Q01DX005 (ip), vehicle: saline); 105 % of control (dose: 25.0 mg/kg/injection, schedule: Q01DX005 (ip), vehicle: saline); 100 % of control (dose: 50.0 mg/kg/injection, schedule: Q01DX005 (ip), vehicle: saline); 98 % of control (dose: 100.0 mg/kg/injection, schedule: Q01DX005 (ip), vehicle: saline); 102 % of control (dose: 200.0 mg/kg/injection, schedule: Q01DX005 (ip), vehicle: saline); 98 % of control (dose: 400.0 mg/kg/injection, schedule: Q01DX005 (ip), vehicle: saline).
With `COC1C(CO)OC(n2cnc3c(=S)nc(N)[nH]c32)C1O` (stereo not given), the T/C is 104 % of control (dose: 12.5 mg/kg/injection, schedule: Q01DX005 (ip), vehicle: Klucel (hydroxypropylcellulose) (HPC)); 109 % of control (dose: 25.0 mg/kg/injection, schedule: Q01DX005 (ip), vehicle: Klucel (hydroxypropylcellulose) (HPC)); 119 % of control (dose: 50.0 mg/kg/injection, schedule: Q01DX005 (ip), vehicle: Klucel (hydroxypropylcellulose) (HPC)); 106 % of control (dose: 100.0 mg/kg/injection, schedule: Q01DX005 (ip), vehicle: Klucel (hydroxypropylcellulose) (HPC)).
In the case of `CC(C)=CCC1=C(O)c2ccccc2C(=O)C1=O`, the T/C is, setting by setting: (dose: 32.0 mg/kg/injection, schedule: Q01DX005 (ip), vehicle: Klucel (hydroxypropylcellulose) (HPC)) 91 % of control; (dose: 64.0 mg/kg/injection, schedule: Q01DX005 (ip), vehicle: Klucel (hydroxypropylcellulose) (HPC)) 100 % of control; (dose: 128.0 mg/kg/injection, schedule: Q01DX005 (ip), vehicle: Klucel (hydroxypropylcellulose) (HPC)) 96 % of control.
Turning to `O=C(O)C1(C(=O)O)CCC1.[NH2-].[NH2-].[Pt+2]`, the T/C is 110 % of control and 118 % of control (dose: 16.0 mg/kg/injection, schedule: Q01DX005 (ip), vehicle: dextrose); 119 % of control and 120 % of control (dose: 32.0 mg/kg/injection, schedule: Q01DX005 (ip), vehicle: dextrose).
As for `COc1ccc2c(c1OC(C)=O)-c1cc(O)cc3c1C(C2)N(C(=O)CN(CCCl)CCCl)CC3` (stereo not given), the T/C reads like this: (dose: 3.12 mg/kg/injection, schedule: Q01DX005 (ip), vehicle: saline with Tween-80) 96 % of control; under setting [1], 102 % of control; (dose: 12.5 mg/kg/injection, schedule: Q01DX005 (ip), vehicle: saline with Tween-80) 105 % of control.
In the case of `COC1C(O)C(C)OC(OC2C(Oc3cccc4c(O)c5c(=O)oc6ccc(C)c7c(=O)oc(c34)c5c67)OC(C)C(O)C2O)C1O` (stereo not given), the T/C was 105 % of control (dose: 1.0 mg/kg/injection, schedule: Q01DX005 (ip), vehicle: saline); 94 % of control and 105 % of control (dose: 2.0 mg/kg/injection, schedule: Q01DX005 (ip), vehicle: saline with Tween-80); 98 % of control (dose: 2.0 mg/kg/injection, schedule: Q01DX005 (ip), vehicle: saline); 99 % of control and 102 % of control (dose: 4.0 mg/kg/injection, schedule: Q01DX005 (ip), vehicle: saline with Tween-80); 96 % of control (dose: 4.0 mg/kg/injection, schedule: Q01DX005 (ip), vehicle: saline); 102 % of control and 104 % of control (dose: 8.0 mg/kg/injection, schedule: Q01DX005 (ip), vehicle: saline with Tween-80). Also, the T/C is, setting by setting: (dose: 8.0 mg/kg/injection, schedule: Q01DX005 (ip), vehicle: saline) 101 % of control; (dose: 16.0 mg/kg/injection, schedule: Q01DX005 (ip), vehicle: saline with Tween-80) 100 % of control and 105 % of control; (dose: 16.0 mg/kg/injection, schedule: Q01DX005 (ip), vehicle: saline) 93 % of control; (dose: 32.0 mg/kg/injection, schedule: Q01DX005 (ip), vehicle: saline with Tween-80) 106 % of control and 89 % of control; (dose: 32.0 mg/kg/injection, schedule: Q01DX005 (ip), vehicle: saline) 98 % of control; (dose: 64.0 mg/kg/injection, schedule: Q01DX005 (ip), vehicle: saline with Tween-80) 102 % of control and 108 % of control. The T/C was 103 % of control (dose: 64.0 mg/kg/injection, schedule: Q01DX005 (ip), vehicle: saline); 106 % of control and 111 % of control (dose: 128.0 mg/kg/injection, schedule: Q01DX005 (ip), vehicle: saline with Tween-80); 98 % of control (dose: 128.0 mg/kg/injection, schedule: Q01DX005 (ip), vehicle: saline).
